Laboratory results reported in BindingDB's records for patent US9139585 (Merck Sharp & Dohme, 2015).

Target: T1, ATP-sensitive inward rectifier potassium channel 1 (Homo sapiens, UniProt P48048)
T1 sequence (P48048 whole entry): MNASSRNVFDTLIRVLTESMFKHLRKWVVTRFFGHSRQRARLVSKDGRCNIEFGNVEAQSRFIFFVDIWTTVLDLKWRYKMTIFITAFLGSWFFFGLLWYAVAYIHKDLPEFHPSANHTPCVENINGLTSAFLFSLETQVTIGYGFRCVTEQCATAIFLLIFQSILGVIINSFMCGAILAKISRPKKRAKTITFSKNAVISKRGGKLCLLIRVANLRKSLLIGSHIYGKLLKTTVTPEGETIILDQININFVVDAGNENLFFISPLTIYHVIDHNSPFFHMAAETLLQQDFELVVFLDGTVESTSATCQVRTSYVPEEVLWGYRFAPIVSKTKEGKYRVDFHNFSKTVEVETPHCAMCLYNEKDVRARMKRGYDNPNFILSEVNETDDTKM
Experiment: Electrophysiology Assay
Settings: pH 7.4; 37 °C
Protocol: Chinese hamster ovary cells stably expressing Kir1.1 channels were maintained in T-75 flasks in cell culture media in a humidified 10% CO2 incubator at 37 °C. Prior to an experiment, Kir1.1 expression was induced by overnight incubation with 1 mM sodium butyrate. […] After centrifugation, the cell pellet was resuspended in approximately 4.0 ml of bath solution and placed in the IonWorks instrument. The intracellular solution consisted of (in mM): 80 K gluconate, 40 KCl, 20 KF, 3.2 MgCl2, 3 EGTA, 5 Hepes, pH 7.

## Cc1c([C@@H](O)CN2CCN(C[C@H](O)c3ccc4c(c3)CCS4(=O)=O)CC2)ccc2c1COC2=O [US9139585, 43B]
  IC50: 95 nM
